The source made the active and inactive calls. The calls are words filed in the database; no cut-off is given here.
Columns and labels:
[1] = Inhibition of recombinant Schistosoma manson carbonic anhydrase pre-incubated with enzyme for 15 mins by phenol red dye based stopped flow CO2 hydration assay; design: species or system Schistosoma mansoni
[2] = Selectivity ratio of Ki for inhibition of recombinant human carbonic anhydrase 2 to Ki for inhibition of recombinant Schistosoma manson carbonic anhydrase; type: toxicity
Schistosoma mansoni [3] = assay: Antischistosomal activity against Schistosoma mansoni Puerto-Rican infected in Swiss Webster mouse assessed as worm burden reduction at 50 mg/kg, ip administered at 42, 44 and 46 hrs post infection and measured after 2 weeks; type: functional, organism-based
Schistosoma mansoni [4] = assay: Antischistosomal activity against Schistosoma mansoni Puerto-Rican infected in Swiss Webster mouse assessed as worm burden reduction at 100 mg/kg, ip administered at 42, 44 and 46 hrs post infection and measured after 2 weeks; type: functional, organism-based

SMILES | Ki [1] | Ratio Ki [2] | Activity (Schistosoma mansoni [3]) | Activity (Schistosoma mansoni [4])
NS(=O)(=O)c1ccc(NC(=[Se])Nc2ccccc2Cl)cc1 | 0.0068 µM | 0.6 | – | –
NS(=O)(=O)c1ccc(CCNC(=[Se])Nc2ccc(Br)cc2)cc1 | 0.0017 µM | 1.05 | – | –
NS(=O)(=O)c1ccc(NC(=[Se])Nc2ccccc2F)cc1 | 0.0057 µM | 1.1 | – | –
NS(=O)(=O)c1ccc(CCNC(=O)Nc2ccc(I)cc2)cc1 | 0.0133 µM | 0.6 | – | –
NS(=O)(=O)c1ccc(NC(=O)Nc2ccc(F)cc2)cc1 [SLC-0111] | 0.0543 µM | 1.7 | inactive | –
NS(=O)(=O)c1ccc(NC(=[Se])Nc2ccccc2)cc1 | 0.0837 µM | 0.6 | – | inactive
NS(=O)(=O)c1ccc(CCNC(=[Se])Nc2ccc3ccccc3c2)cc1 | 0.0849 µM | 1.1 | – | –
NS(=O)(=O)c1ccc(CCNC(=[Se])Nc2ccccc2F)cc1 | 0.0079 µM | 1 | – | –
NS(=O)(=O)c1ccc(CCNC(=[Se])Nc2cccc(C(F)(F)F)c2)cc1 | 0.0045 µM | 0.97 | – | –
NS(=O)(=O)c1ccc(CCNC(=S)Nc2ccc(I)cc2)cc1 | 0.0376 µM | 0.2 | – | –
CC(=O)Nc1nnc(S(N)(=O)=O)s1 [ACETAZOLAMIDE] | 0.0425 µM | 0.3 | – | –
COc1ccccc1NC(=[Se])NCCc1ccc(S(N)(=O)=O)cc1 | 0.0061 µM | 0.7 | – | –
NS(=O)(=O)c1ccc(CCNC(=[Se])Nc2ccccc2Cl)cc1 | 0.0058 µM | 0.6 | – | inactive
NS(=O)(=O)c1ccc(NC(=[Se])Nc2ccc(F)cc2)cc1 | 0.0768 µM | 0.9 | – | –
NS(=O)(=O)c1ccc(CCNC(=[Se])Nc2ccccc2)cc1 | 0.0032 µM | 1.7 | – | –
NS(=O)(=O)c1ccc(NC(=[Se])Nc2cccc(C(F)(F)F)c2)cc1 | 0.0015 µM | 4.1 | – | –
NS(=O)(=O)c1ccc(NC(=S)Nc2ccc(F)cc2)cc1 | 0.0233 µM | 0.6 | – | –
NS(=O)(=O)c1ccc(CCNC(=[Se])Nc2ccc(I)cc2)cc1 | 0.0047 µM | 12.2 | – | –
NS(=O)(=O)c1cccc(NC(=[Se])Nc2ccccc2)c1 | 0.426 µM | 0.8 | – | –
NS(=O)(=O)c1cccc(NC(=[Se])Nc2ccc(F)cc2)c1 | 0.0914 µM | 4.2 | – | –

From ChEMBL document CHEMBL5034017, “Structural Insights into Schistosoma mansoni Carbonic Anhydrase (SmCA) Inhibition by Selenoureido-Substituted Benzenesulfonamides” (J Med Chem, 2021)
